Test results: publication PMC9942192 (ACS Synthetic Biology, 2023)

Target: T1, AtSWEET4 (Arabidopsis thaliana, UniProt Q944M5)
T1 sequence (Q944M5 1-251): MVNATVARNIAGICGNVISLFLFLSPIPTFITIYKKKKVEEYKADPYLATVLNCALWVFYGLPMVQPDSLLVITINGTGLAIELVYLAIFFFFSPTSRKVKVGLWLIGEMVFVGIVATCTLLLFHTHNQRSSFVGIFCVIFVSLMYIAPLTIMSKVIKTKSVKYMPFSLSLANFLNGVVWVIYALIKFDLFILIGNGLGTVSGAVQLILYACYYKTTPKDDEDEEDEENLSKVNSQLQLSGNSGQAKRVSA
Assay: […]-radiolabeled uptake in yeast EBY4000
Type: cell-based
Conditions: labelled compound; positive control; n = 3

Row | Compound | uptake
1 | OCC1(O)OC[C@@H](O)[C@@H](O)[C@@H]1O (stereo partly drawn) [D-fructose] | D-mannose and D-fructose transporter AtSWEET4 serves as a positive control
2 | OC[C@H]1OC(O)[C@@H](O)[C@@H](O)[C@@H]1O (stereo partly drawn) [D-mannose] | D-mannose and D-fructose transporter AtSWEET4 serves as a positive control
